#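 Five concentrations, 48 hours, 96-well plates. GI50: concentration for 50% inhibition of growth.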 Activity calls are given as the source filed them. No stated cut-off is given here; in the data, active = GI50 up to about 1.1 µM and inactive = higher.
# Columns and labels:
# Experiment in all cases: growth of human tumour cells (NCI), 48 h
# [1] = system: MOLT-4
# [2] = system: OVCAR-5
# [3] = system: OVCAR-8
# [4] = system: SK-MEL-2
# [5] = system: MDA-MB-435
# [6] = system: 786-0
# [7] = system: HCC 2998
# [8] = system: MCF7
# [9] = system: Hs-578T
# [10] = system: MDA-N
# [11] = system: SK-OV-3
# [12] = system: SF-539
# [13] = system: SK-MEL-5
# [14] = system: HOP-62
# [15] = system: COLO 205
# [16] = system: OVCAR-4
# [17] = system: A498
# [18] = system: LOX IMVI
# [19] = system: HL-60
# [20] = system: T47D
Compound,GI50 [1],GI50 [2],GI50 [3],GI50 [4],GI50 [5],GI50 [6],GI50 [7],GI50 [8],GI50 [9],GI50 [10],GI50 [11],GI50 [12],GI50 [13],GI50 [14],GI50 [15],GI50 [16],GI50 [17],GI50 [18],GI50 [19],GI50 [20]
O=C(O)CC(NC(=O)C(F)(F)F)C(=O)NC1Cc2ccccc2OC1=O (configuration not stated),> 100 µM (inactive),> 100 µM (inactive),> 100 µM (inactive),> 100 µM (inactive),> 100 µM (inactive),> 100 µM (inactive),> 100 µM (inactive),> 100 µM (inactive),> 100 µM (inactive),> 100 µM (inactive),> 100 µM (inactive),> 100 µM (inactive),> 100 µM (inactive),> 100 µM (inactive),–,–,–,–,–,–
O=C(O)CCNCCCCNCCC(=O)O,> 100 µM (inactive),> 100 µM (inactive),> 100 µM (inactive),> 100 µM (inactive),–,> 100 µM (inactive),> 100 µM (inactive),–,–,–,> 100 µM (inactive),> 100 µM (inactive),> 100 µM (inactive),> 100 µM (inactive),> 100 µM (inactive),> 100 µM (inactive),> 100 µM (inactive),> 100 µM (inactive),> 100 µM (inactive),–
CN(C)/N=N/c1c[nH]nc1C(N)=O,> 100 µM (inactive),> 100 µM (inactive),> 100 µM (inactive),> 100 µM (inactive),–,> 100 µM (inactive),> 100 µM (inactive),–,–,–,> 100 µM (inactive),> 100 µM (inactive),> 100 µM (inactive),> 100 µM (inactive),> 100 µM (inactive),> 100 µM (inactive),> 100 µM (inactive),53.1 µM (inactive),> 100 µM (inactive),–
Cc1c2ccncc2c(C)c2c1[nH]c1ccc(OC(C)(C)C)cc12,1.67 µM (inactive),11.7 µM (inactive),2.51 µM (inactive),2.03 µM (inactive),–,1.53 µM (inactive),1.85 µM (inactive),–,–,–,4.42 µM (inactive),1.57 µM (inactive),2.14 µM (inactive),2.88 µM (inactive),1.47 µM (inactive),1.98 µM (inactive),12.2 µM (inactive),2.24 µM (inactive),1.81 µM (inactive),–
CC(C)(C)n1c(=O)n2n(c1=O)Cc1cccc3cccc(c13)C2,14.8 µM (inactive),17 µM (inactive),17.8 µM (inactive),17.9 µM (inactive),23.7 µM (inactive),19.5 µM (inactive),21.9 µM (inactive),22.8 µM (inactive),12.2 µM (inactive),22.1 µM (inactive),27.1 µM (inactive),17.2 µM (inactive),19.5 µM (inactive),14 µM (inactive),29.5 µM (inactive),19.6 µM (inactive),–,23.8 µM (inactive),–,–
CN(C(=O)[C@@H](NC(=O)OC(C)(C)C)c1ccccc1)[C@H]1CCCC[C@@H]1N1CCCC1,> 100 µM (inactive),> 100 µM (inactive),> 100 µM (inactive),> 100 µM (inactive),> 100 µM (inactive),> 100 µM (inactive),–,> 100 µM (inactive),> 100 µM (inactive),–,> 100 µM (inactive),> 100 µM (inactive),> 100 µM (inactive),> 100 µM (inactive),> 100 µM (inactive),> 100 µM (inactive),> 100 µM (inactive),–,> 100 µM (inactive),> 100 µM (inactive)
CCOC(=O)c1[nH]c2cccc3c2c1CC[C@H](NC(=O)C(F)(F)F)C3=O,> 100 µM (inactive),> 100 µM (inactive),19.7 µM (inactive),20 µM (inactive),45.1 µM (inactive),31.2 µM (inactive),> 100 µM (inactive),73.1 µM (inactive),19.5 µM (inactive),34.5 µM (inactive),–,38.1 µM (inactive),22.5 µM (inactive),24 µM (inactive),> 100 µM (inactive),24.7 µM (inactive),43.7 µM (inactive),78 µM (inactive),> 100 µM (inactive),–
CC1=Nn2c(nnc2-c2ccc(N)cc2)NC(C)(C)C1,> 100 µM (inactive),> 100 µM (inactive),–,> 100 µM (inactive),–,> 100 µM (inactive),> 100 µM (inactive),–,–,–,> 100 µM (inactive),> 100 µM (inactive),> 100 µM (inactive),> 100 µM (inactive),> 100 µM (inactive),> 100 µM (inactive),> 100 µM (inactive),> 100 µM (inactive),> 100 µM (inactive),–
CC(=O)OCC1OC(OC2CC3C(C)(C)C(O)CC[C@]3(C)C3CCC45CC4(CC[C@H]5C(C)CC(O)C4OC4(C)C)[C@]23C)C(O)C(O)C1O (some centres not stated),0.701 µM (active),9.12 µM (inactive),6.89 µM (inactive),5.86 µM (inactive),–,7.57 µM (inactive),7.06 µM (inactive),–,–,–,8.2 µM (inactive),7.98 µM (inactive),3.1 µM (inactive),11.1 µM (inactive),7.24 µM (inactive),8.73 µM (inactive),34.5 µM (inactive),5.2 µM (inactive),0.973 µM (active),–
COc1ccc(O)c2c1C(=O)CCCC2=O,> 100 µM (inactive),> 100 µM (inactive),> 100 µM (inactive),> 100 µM (inactive),–,> 100 µM (inactive),> 100 µM (inactive),–,–,–,> 100 µM (inactive),> 100 µM (inactive),> 100 µM (inactive),> 100 µM (inactive),> 100 µM (inactive),> 100 µM (inactive),> 100 µM (inactive),> 100 µM (inactive),> 100 µM (inactive),–
CC(C)(C)OC(=O)C1/C(=C/CBr)CN1C(=O)OC(C)(C)C (configuration not stated),6.56 µM (inactive),18.7 µM (inactive),16.9 µM (inactive),> 10 µM (inactive),12.9 µM (inactive),11.2 µM (inactive),16.9 µM (inactive),3.76 µM (inactive),22 µM (inactive),14.7 µM (inactive),21.1 µM (inactive),18.5 µM (inactive),14.3 µM (inactive),15.8 µM (inactive),2.56 µM (inactive),2.86 µM (inactive),16.4 µM (inactive),3.24 µM (inactive),2.66 µM (inactive),–
COc1ccc(C(=O)C=C2NCCN2)cc1,> 100 µM (inactive),> 100 µM (inactive),> 100 µM (inactive),> 100 µM (inactive),–,> 100 µM (inactive),> 100 µM (inactive),–,–,–,> 100 µM (inactive),> 100 µM (inactive),> 100 µM (inactive),> 100 µM (inactive),> 100 µM (inactive),> 100 µM (inactive),> 100 µM (inactive),> 100 µM (inactive),> 100 µM (inactive),–
CCOC(=O)C(Cc1ccccc1)NC(=O)c1nc[nH]c1/N=N/N(C)C (configuration not stated),> 100 µM (inactive),> 100 µM (inactive),> 100 µM (inactive),> 100 µM (inactive),–,> 100 µM (inactive),> 100 µM (inactive),–,–,–,> 100 µM (inactive),> 100 µM (inactive),> 100 µM (inactive),> 100 µM (inactive),> 100 µM (inactive),> 100 µM (inactive),> 100 µM (inactive),> 100 µM (inactive),> 100 µM (inactive),–
CCc1ccc(Cc2ccc(CC)c(NC(=O)C(=O)Cc3nc4ccccc4nc3C)c2CC)c(CC)c1NC(=O)C(=O)Cc1nc2ccccc2nc1C,40.6 µM (inactive),> 100 µM (inactive),> 100 µM (inactive),> 100 µM (inactive),–,> 100 µM (inactive),62.5 µM (inactive),–,–,–,> 100 µM (inactive),36.8 µM (inactive),> 100 µM (inactive),> 100 µM (inactive),> 100 µM (inactive),72.3 µM (inactive),> 100 µM (inactive),> 100 µM (inactive),> 100 µM (inactive),–
N#CC1(N2CCCC2)CCC2(CC1)OCCO2,> 100 µM (inactive),> 100 µM (inactive),> 100 µM (inactive),> 100 µM (inactive),–,> 100 µM (inactive),> 100 µM (inactive),–,–,–,> 100 µM (inactive),> 100 µM (inactive),> 100 µM (inactive),> 100 µM (inactive),> 10 µM (inactive),> 100 µM (inactive),> 100 µM (inactive),> 100 µM (inactive),> 100 µM (inactive),–
CCOP(=O)(OCC)C(C(=O)OC)C(=O)C(=O)Nc1ccc(Cl)cc1Cl (configuration not stated),> 100 µM (inactive),> 100 µM (inactive),> 100 µM (inactive),> 100 µM (inactive),–,> 100 µM (inactive),> 100 µM (inactive),–,–,–,> 100 µM (inactive),> 100 µM (inactive),> 100 µM (inactive),> 100 µM (inactive),> 100 µM (inactive),> 100 µM (inactive),> 100 µM (inactive),> 100 µM (inactive),> 100 µM (inactive),–
C[C@]12C[C@H](c3ccccc3)Nc3ccccc3N1C(c1ccccc1)=NO2,24.5 µM (inactive),> 100 µM (inactive),85.7 µM (inactive),> 100 µM (inactive),35.5 µM (inactive),60.1 µM (inactive),> 100 µM (inactive),52.6 µM (inactive),> 100 µM (inactive),74.1 µM (inactive),> 100 µM (inactive),> 100 µM (inactive),30.1 µM (inactive),> 100 µM (inactive),78.7 µM (inactive),52 µM (inactive),> 100 µM (inactive),–,74.6 µM (inactive),–

# From ChEMBL document CHEMBL1201862, “PubChem BioAssay data set” (2004)
